Test results taken from paper PMC6112376, “Comprehensive Analyses and Prioritization of Tox21 10K Chemicals Affecting Mitochondrial Function by in-Depth Mechanistic Studies” (Environmental Health Perspectives, 2018).
Structures can show the parent of a compound that is named as a salt. Where two headings read alike, the source gives them in different places.

Experiments:
HepG2 cells [1] = assay: cells; conditions: Homo sapiens; for IC50: HepG2, read-out: MMP assays IC50 (µM) HepG2; for Emax: HepG2, read-out: MMP assays efficacy (%) HepG2
HepG2 cells [2] = conditions: cited from earlier work
rat primary hepatocytes [3] = assay: MMP assay in rat primary hepatocytes; conditions: for IC50: Rattus norvegicus, Hepatocyte, read-out: MMP assays IC50 (µM) Rat Hepatocytes
rat primary hepatocytes [4] = tested on: rat primary hepatocytes
[5] = read-out: MMP assays IC50 (µM) qHTS-HepG2
[6] = read-out: MMP assays IC50 (µM), qHTS-HepG2

SMILES	IC50 (HepG2 cells [1]) [µM]	Emax (HepG2 cells [1]) [%]	MMP assays efficacy (%) qHTS-HepG2 (HepG2 cells [2]) [%]	IC50 (HepG2 cells [2]; [5]) [µM]	MMP assays IC50 (µM) Rat Hepatocytes (rat primary hepatocytes [3])	MMP assays efficacy (%) Rat Hepatocytes (rat primary hepatocytes [4])	IC50 (HepG2 cells [2]; [6]) [µM]	IC50 (rat primary hepatocytes [3]) [µM]
CC(=O)Nc1ccc2c(c1)Cc1ccccc1-2 [Compound 2-Acetylaminofluorene]	31.6	46	-63±5	36.3 ± 10.5	inactive	inactive		
CCC(C)c1ccccc1O (stereo not drawn) [2-(Butan-2-yl)phenol]	25.1	32	-82±8	49.5 ± 9.45	inactive	inactive		
Cc1cc(NC(=O)C2=C(O)c3ccccc3S(=O)(=O)N2C)no1 [Isoxicam]	2.75	38	-66±27			-60±55%	5.18 ± 2.9	4.92 ± 0.8
O=C(Nc1cccc(Cl)c1)OCC#CCCl [Barban]	25.1	87	-116±9	22.5 ± 4.1		-68±37%		36 ± 7.53
Oc1ccc2ccccc2c1 [Compound 2-Naphthalenol]	35.5	81	-107±7	50.1 ± 16		-56±17%		42.2 ± 19.8
Oc1ccc2ccc3cccc4ccc1c2c34 [Compound 1-Hydroxypyrene]	7.08	99	-110±22	4.67 ± 1.95		-49±25%		33.5 ± 2.73
Nc1ccc(Cl)cc1N [4-Chloro-1,2-diaminobenzene]	2	90	-94±12	2.38 ± 1.6		-88±17%		11 ± 4.37
C[C@H]1O[C@@H](O[C@H]2CC[C@@]3(C)[C@H](CC[C@@H]4[C@@H]3C[C@@H](O)[C@]3(C)[C@@H](C5=CC(=O)OC5)CC[C@]43O)C2)C[C@H](O)[C@@H]1O[C@H]1C[C@H](O)[C@H](O[C@H]2C[C@H](O)[C@H](O[C@@H]3O[C@H](CO)[C@@H](O)[C@H](O)[C@H]3O)[C@@H](C)O2)[C@@H](C)O1 [Deslanoside]	0.44	97	-81±14	1.84 ± 0.23	inactive	inactive		
CCc1oc2ccccc2c1C(=O)c1cc(Br)c(O)c(Br)c1 [Benzbromarone]	13.8	107	-138±3	7.22 ± 1.24		-82±50%		4.91 ± 1.79
C[C@H]1O[C@@H](O[C@H]2[C@@H](O)C[C@H](O[C@H]3[C@@H](O)C[C@H](O[C@H]4CC[C@@]5(C)[C@H](CC[C@@H]6[C@@H]5C[C@@H](O)[C@]5(C)[C@@H](C7=CC(=O)OC7)CC[C@]65O)C4)O[C@@H]3C)O[C@@H]2C)C[C@H](O)[C@@H]1O [Digoxin]	0.13	105	-71±8	0.52 ± 0.09	inactive	inactive		
C#C[C@]1(OC(C)=O)CC[C@H]2[C@@H]3CCC4=C[C@@H](OC(C)=O)CC[C@@H]4[C@H]3CC[C@@]21C [Ethynodiol diacetate]	21.8	98	-62±16	15.4 ± 0.84	inactive	inactive		
COC(=O)[C@]12CCC(C)(C)C[C@H]1[C@H]1C(=O)C=C3[C@@]4(C)C=C(C#N)C(=O)C(C)(C)[C@@H]4CC[C@@]3(C)[C@]1(C)CC2 [Bardoxolone methyl]	17.3	122	-114±5	5.11 ± 1.27		-90±57%		17.4 ± 2
CCCN(CCC)c1c([N+](=O)[O-])cc(C(F)(F)F)cc1[N+](=O)[O-] [Trifluralin]	39.8	78	-53±8			-53±24%	46.7 ± 9.14	32.6 ± 23.1
CC(COc1ccccc1)N(CCCl)Cc1ccccc1 (stereo not drawn) [Phenoxybenzamine hydrochloride]	35.5	63	-99±7		inactive	inactive	48.8 ± 9.17	
CC(C)(C)CC(C)(C)c1ccc(O)cc1 [4-(1,1,3,3-Tetramethylbutyl)phenol]	4.89	100	-103±8	4.25 ± 0.92	inactive	inactive		
CC(=O)O[C@H]1C[C@H](O[C@H]2[C@@H](O)C[C@H](O[C@H]3[C@@H](O)C[C@H](OC4CC[C@@]5(C)[C@H](CC[C@@H]6[C@@H]5CC[C@]5(C)[C@@H](C7=CC(=O)OC7)CC[C@]65O)C4)O[C@@H]3C)O[C@@H]2C)O[C@H](C)[C@H]1O[C@@H]1O[C@H](CO)[C@@H](O)[C@H](O)[C@H]1O (stereo partly drawn) [Lanatoside A]	0.14	91	-69±2		inactive	inactive	0.43 ± 0.04	
Oc1cc(Cl)ccc1Oc1ccc(Cl)cc1Cl [Triclosan]	6.15	123	-101±5			-58±19%	1.5 ± 0.88	15.2 ± 13.5
O=P(OCC(Br)CBr)(OCC(Br)CBr)OCC(Br)CBr (stereo not drawn) [Tris(2,3-dibromopropyl) phosphate]	50.1	110	-99±7			-91±11%	45.8 ± 8.72	44 ± 10.7
CCC/C=C/C=C/C(=O)O[C@H]1/C(=C/C(=O)OC)C[C@H]2C[C@H]([C@@H](C)O)OC(=O)C[C@H](O)C[C@@H]3C[C@H](OC(C)=O)C(C)(C)[C@](O)(C[C@@H]4C/C(=C/C(=O)OC)C[C@H](/C=C/C(C)(C)[C@]1(O)O2)O4)O3 [Bryostatin 1]	0.001	92	-105±21	0.01 ± 0.01		-46±21%		0.79 ± 1.07
CN(C)c1ccc2nc3ccc(=[N+](C)C)cc-3sc2c1 [Methylene blue]	2.75	89	-78±9		inactive	inactive	2.88 ± 1.33	
Oc1ccc(/C=C/c2cc(O)cc(O)c2)cc1 [Resveratrol]	3.71	33	-66±11		inactive	inactive	1.6 ± 0.43	
COc1ccc(C(=O)c2ccccc2O)c(O)c1 [2,2'-Dihydroxy-4-methoxybenzophenone]	5.24	103	-98±6	9.89 ± 1.04		-47±18%		11.1 ± 5.21
Oc1ccc(Cl)c(Cl)c1Cl [2,3,4-Trichlorophenol]	7.94	101	-101±8	5.23 ± 1.52		-59±36%		41.8 ± 14.4
CCCCCCc1ccc(-c2ccc(C#N)cc2)cc1 [4-Hexyl-4'-cyanobiphenyl]	31.6	59	-109±6	42.5 ± 15.4		-56±24%		17.5 ± 15.6
